Consider one compound from patent publication US20170143712A1, “Methods of Treating Cancers, Immune and Autoimmune Diseases, and Inflammatory Diseases Based on BTK Occupancy and BTK Resynthesis Rate” (Acerta Pharma B.V., priority 2014, published 2017).

Where two headings read alike, the source gives them in different places. A value given as a limit tells only on which side of the number the result lay.

For test [1], the system named is MDA-MB-231 tumor cells. The experiment in a line: Osteolytic bone lesions after intratibial MDA-MB-231 tumor inoculation in nude rats. The test is classed as in vivo, rat. On the set-up: mean visual lysis score: scale not given here; mean left tibial density: unit not given here. The method, then:
FIG. 40A, FIG. 40B, FIG. 40C, FIG. 40D, FIG. 40E, FIG. 40F, and FIG. 40G illustrate the bone density in hind limbs of nude rats (n=6 per group) implanted with intratibial MDA-MB231 tumor […] and treated for up to 41 days with vehicle control, zoledronate (active control) or varying doses of Formula (II). Oral gavage administration of Formula (II) was scheduled as 3 days of initial QD dosing, followed by 30 days of BID dosing at the following dose levels: 3/3, 30/30, and 180/90 mg/kg/day. An untreated group of rats, without tibial implants (n=3) represents bone density of concurrently obtained normal rat tibial images. Statistical significance was determined by two-way ANOVA-Dunnett: ns=not significant, *=P<0.05, **=P<0.01, ***=P<0.001, versus Group 1.
Rats were inoculated with MDA-MB-231 tumor cells on Day 1, baseline radiographs were taken on Day 2, and treatment with Formula (II) began on Day 8. Radiographs were taken on Days 10, 17, 24, 31, 38, and 41. Anti-osteolytic activities were determined from differences in bone density and visual lysis scores between the drug-treated and vehicle-treated groups on each observation day, and also from changes in bone density and visual lysis scores in tumor-inoculated left tibias at baseline (Day 2) compared to Days 10, 17, 24,31, 38, and 41.
Radiographs were blinded for both analyses. […] Visual osteolysis was not detected in any rat in the nave group. The 4% increase in mean bone density from baseline to study end presumably reflected normal growth in these rats.

Test [2] has as its target BTK (Homo sapiens, UniProt Q06187). The test is described as follows: BTK occupancy in PBMCs / peripheral blood B lymphocytes of healthy volunteers (active-site probe ELISA). It is filed as in vivo. Particulars: for receptor occupancy at 15 mg: human. Here is the method:
The presence of inactivated BTK in peripheral blood B lymphocytes was measured using a BTK active-site specific probe in an ELISA assay and expressed as a percentage of pre-study levels.
A Phase 1, single-center, open-label, single-treatment study in healthy volunteers was conducted to assess the BTK occupancy of Formula (II) after multiple-dose administration in healthy adult subjects under fasting conditions. The study primarily focused on characterizing the pharmacodynamics (PD) of Formula (II) by assessing the BTK occupancy profile of Formula (II) in peripheral blood mononuclear cells (PBMCs) and by measuring the expression of lymphocyte B activation markers, CD69 and CD86, during and after multiple oral dose administration of 15 mg daily in healthy subjects. As a secondary objective, the study evaluated the pharmacokinetic (PK) profile, safety, and tolerability after multiple-dose administrations of Formula (II) in the healthy subjects. Moreover, the study determined the effects of Formula (II) on peripheral blood T cells and myeloid-derived suppressor cells (MDSCs).
Forty, healthy adult, non-tobacco using men and women were enrolled in the study. A 15 mg Formula (II) dose (1×15 mg capsule) was administered once daily (QD) to each subject for 7 consecutive days (Days 1 to 7) with a washout period (6 days). PD blood samples were collected from each subject before dosing on Day 1, throughout the study, and up to 144 hours after dosing on Day 7 to characterize Formula (II) PD effects. PK sampling for Formula (II) was also collected before dosing on Day 1, throughout the study, and for 24 hours after dosing on Day 7. Additionally, potential Formula (II) safety issues were monitored through physical examination, vital sign measurements, 12 lead electrocardiograms (ECGs), AEs and clinical laboratory tests.
The occupancy of BTK by Formula (II) was measured in PBMCs with the aid of a biotin tagged Formula (II) analogue probe. The effect of Formula (II) on functional activation of B cells following BCR stimulation (measured via the phorphorylation of BTK and upregulation of CD69 and CD86 activation markers) was also evaluated.
Background: In an ELISA, binding on a coated surface is turned into a signal by an enzyme label.

Test [3] concerns S6 phosphorylation. The experiment in a line: Basal and anti-IgM induced S6 phosphorylation in splenocytes after oral dosing of mice. The test is classed as in vivo, mouse. Particulars: single oral 25 mg/kg; rank order Formula (II)>ibrutinib>Formula (XVII). The method, then: B cell stimulation through the B cell receptor (BCR) with antibodies (e.g., anti-IgM) results in the activation of BTK and subsequent cellular changes, including the upregulation of various cell surface receptors. Measuring the inhibition of BCR induced protein phosphorylation downstream of Btk, and the inhibition of surface receptor upregulation provides a way to assess the Btk inhibitor activity. In the first study, the BTK target occupancy in splenocytes was measured over time, providing evidence for BTK resynthesis in the tissue compartment of interest.
Mice were sacrificed at 3, 6, 12, 18, and 24 hours after treatment with the BTK inhibitors (FIG. 27A, FIG. 27B, and FIG. 27C). Spleens were harvested and splenocyte preparations were made for flow cytometry analysis of B cell functions. Fresh or cryopreserved splenocytes were cultured with a-IgM to stimulate BCR, and the up-regulation of CD69, an early functional marker of B cell activation, was analyzed by flow cytometry.
A downstream marker of BTK activity, S6 phosphorylation, was also monitored in this study. […] In a second study, the effects of another inhibitor of BTK that covalently inactivates the kinase, Formula (XXI), were compared with Formula (II) to evaluate the return of BCR function and B cell activation, as illustrated in FIG. 29A and FIG. 29B.

The mark [4] stands for this setting: 180 QD/90 BID mg/kg (Group 5), Day 31.
[5] abbreviates: 180 QD/90 BID mg/kg (Group 5), Day 41.

Sequence of BTK (Q06187 whole entry): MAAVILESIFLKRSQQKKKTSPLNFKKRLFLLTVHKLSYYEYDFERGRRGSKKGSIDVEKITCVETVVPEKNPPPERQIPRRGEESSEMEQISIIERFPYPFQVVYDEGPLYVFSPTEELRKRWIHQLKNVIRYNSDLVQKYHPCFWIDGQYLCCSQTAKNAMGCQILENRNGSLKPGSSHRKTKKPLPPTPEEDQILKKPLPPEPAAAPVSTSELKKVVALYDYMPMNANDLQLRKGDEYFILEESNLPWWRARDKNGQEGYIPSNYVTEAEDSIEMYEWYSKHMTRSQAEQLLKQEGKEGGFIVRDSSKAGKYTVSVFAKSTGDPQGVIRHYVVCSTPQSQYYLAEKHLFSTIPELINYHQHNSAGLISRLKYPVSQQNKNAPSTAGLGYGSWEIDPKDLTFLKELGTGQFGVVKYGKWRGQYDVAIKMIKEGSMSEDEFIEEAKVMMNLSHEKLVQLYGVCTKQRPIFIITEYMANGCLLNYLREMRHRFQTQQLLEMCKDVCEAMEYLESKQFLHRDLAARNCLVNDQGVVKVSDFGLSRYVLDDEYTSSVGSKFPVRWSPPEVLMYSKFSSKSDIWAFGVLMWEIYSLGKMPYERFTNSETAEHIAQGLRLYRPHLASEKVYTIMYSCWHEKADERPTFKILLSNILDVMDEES

On to `CC#CC(=O)N1CCC[C@H]1c1nc(-c2ccc(C(=O)Nc3ccccn3)cc2)c2c(N)nccn12` [Formula (II), (S)-4-(8-amino-3-(1-(but-2-ynoyl)pyrrolidin-2-yl)imidazo[1,5-a]pyrazin-1-yl)-N-(pyridin-2-yl)benzamide], for which, in test [1] (3 or 30 mg/kg, any observation day excluding Day 24 for 30 mg/kg), the “left tibial bone density compared to vehicle controls” value was “no significant differences”. In addition, the “left intratibial densities compared to control Group 1” value in test [1] (180 QD/90 BID mg/kg (Group 5)) is listed as “significantly greater compared to control Group 1 on Day 31, but not Day 41”. Further, the “mean left tibial density” value in test [1] (180 QD/90 BID mg/kg (Group 5), Day 2 baseline) is on record as 201.4±0.6; in test [1] (setting [4]), 199.1±0.6; in test [1] (setting [5]) it was 197.2±0.6. Besides, the “decrease in mean left tibial density” value in test [1] (180 QD/90 BID mg/kg (Group 5), Day 2 to Days 31 and 41) is listed as 1-2%. In addition, the “mean visual lysis score” value was 1.2 in test [1] (setting [4]) and 1.5 in test [1] (setting [5]). Further, the “rats that never developed visible left tibial lesions” value in test [1] (180 QD/90 BID mg/kg (Group 5), n=6) is listed as “Two rats”. The “estimated half-life of occupied BTK (BTK resynthesis t1/2)” value in test [2] (15 mg QD, Days 1 and 2, initial post-dose rate) is 20 h; in test [2] (after discontinuation of 15 mg QD x 7 days at steady state, later rate), 119 h. Further, the “modeled rate of BTK resynthesis (t1/2)” value is reported as 119 h in test [2] (after 7 days dosing with 15 mg, and after a 25 mg BID dose); 20 h in test [2] (early doses of 15 mg QD, or a single 25 mg QD dose). Besides, the receptor occupancy at 15 mg in test [2] (15 mg QD for 7 days, read-out: peak BTK occupancy at steady state) is more than 90%; in test [2] (15 mg QD, Days 1 and 2, read-out: BTK target occupancy at the end of the dosing interval), approximately 60%. In test [3], the “basal state and anti-IgM induced S6 phosphorylation” value was “inhibited both basal state and anti-IgM induced S6 phosphorylation”.
